Measurements from patent US20220030865A1, “COMPOSITIONS COMPRISING FLORPYRAUXIFEN THAT SAFEN WHITE CLOVER AND METHODS OF USE THEREOF” (CORTEVA AGRISCIENCE LLC, priority 2018, published 2022).

What was measured:
[1] = system: white clover (TRFRE, Trifolium repens); test: Field trial United States, safening effect (visual injury) on white clover
From the text: Field trials were established in multiple states in the United States to evaluate the safening effect of herbicide treatments to white clover (TRFRE, Trifolium repens) in existing pasture lands. Trials were designed as randomized complete blocks with four replicates. All trials were established with a minimum plot size of 3 meters (m) by 8 m (width×length).
All herbicide treatments were applied post-emergence with applications made to the white clover. Herbicides were applied with backpack sprayers using carbon dioxide (CO2) as a propellant. The sprayers utilized flat fan spray nozzles calibrated to deliver a uniform spray pattern that provided thorough coverage of the foliage using a 187 L/ha spray volume. All treatments were applied with Activator 90 non-ionic surfactant at 0.25% v/v.
The white clover was evaluated on the number of days after application (DAA) given in each table below. Injury to the white clover was assessed visually at several intervals after application as percent overall injury, compared to an untreated control plot. The overall injury assessments were based on visual ratings of growth inhibition, leaf deformity, epinasty, and chlorosis.

[2] = system: sickle pod (CASOB, Senna obtusifolia); test: Field trial, postemergence herbicidal effect on pasture weeds
From the text: (§1) Trials were designed as randomized complete blocks with four replicates. All trials were established with a minimum plot size of 3 meters (m) by 8 m (width×length). All herbicide treatments were applied post-emergence with applications made to the undesirable vegetation. Herbicides were applied with backpack sprayers using carbon dioxide (CO2) as a propellant. The sprayers utilized flat fan spray nozzles calibrated to deliver a uniform spray pattern that provided thorough coverage of the foliage using a 187 L/ha spray volume. All treatments were applied with Activator 90 non-ionic surfactant at 0.25% v/v.
(§2) The weeds were evaluated on the number of days after application (DAA) given in each table below. Injury to the weeds was assessed visually at several intervals after application as percent overall injury, compared to an untreated control plot. The overall injury assessments were based on visual ratings of growth inhibition, leaf deformity, epinasty, and chlorosis.

[3] = system: tall buttercup (RANAC, Ranunculus acris); test: as above
From the text: as §1, §2

[4] = system: annual marsh-elder (IVAAN, Iva annua); test: as above
From the text: as §1, §2

[5] = system: bitter sneezeweed (HENAM, Helenium amarum); test: as above
From the text: as §1, §2

[6] = system: brown knapweed (CENJA, Centaurea jacea); test: as above
From the text: as §1, §2

[7] = system: Virginia pepperweed (LEPVI, Lepidium virginicum); test: as above; conditions: 27 DAA
From the text: as §1, §2

[8] = system: goldenrod (SOOSS, Solidago sp.); test: as above; conditions: 67 DAA
From the text: as §1, §2

[9] = system: annual yellow sweetclover (MEUIN, Melilotus indicus); test: as above; conditions: 30 DAA
From the text: as §1, §2

[10] = system: mayweed chamomile (ANTCO, Anthemis cotula); test: as above; conditions: 14 DAA
From the text: as §1, §2

[11] = system: hairy aster (ASTPI, Symphyotrichum pilosum); test: as above
From the text: as §1, §2

## O=C(O)COc1ccc(Cl)cc1Cl [2,4-D Choline, 2,4-D choline]
[1]; 0 DAA, 754 g ae/ha
  Visual Injury TRFRE Obs: 30%
[1]; 0 DAA, 840 g ae/ha
  Visual Injury TRFRE Obs: 6.5%
[1]; 7 DAA, 754 g ae/ha
  Visual Injury TRFRE Obs: 4.8%
[1]; 7 DAA, 840 g ae/ha
  Visual Injury TRFRE Obs: 10%
[1]; 14 DAA, 754 g ae/ha
  Visual Injury TRFRE Obs: 86.2%
[1]; 14 DAA, 840 g ae/ha
  Visual Injury TRFRE Obs: 15%
[1]; 21 DAA, 840 g ae/ha
  Visual Injury TRFRE Obs: 11.2%
[1]; 28 DAA, 840 g ae/ha
  Visual Injury TRFRE Obs: 10%
[2]; 30 DAA, 840 g ae/ha
  Visual Weed Control CASOB Obs: 10%
[2]; 45 DAA, 840 g ae/ha
  Visual Weed Control CASOB Obs: 10%
[3]; 10 DAA, 750 g ae/ha
  Visual Weed Control RANAC Obs: 8%
[3]; 40 DAA, 750 g ae/ha
  Visual Weed Control RANAC Obs: 28%
[4]; 41 DAA, 840 g ae/ha
  Visual Weed Control IVAAN Obs: 38%
[4]; 56 DAA, 840 g ae/ha
  Visual Weed Control IVAAN Obs: 38%
[4]; 75 DAA, 840 g ae/ha
  Visual Weed Control IVAAN Obs: 30%
[4]; 83 DAA, 840 g ae/ha
  Visual Weed Control IVAAN Obs: 35%
[5]; 30 DAA, 840 g ae/ha
  Visual Weed Control HENAM Obs: 74%
[5]; 80 DAA, 840 g ae/ha
  Visual Weed Control HENAM Obs: 90%
[6]; 67 DAA, 840 g ae/ha
  Visual Weed Control CENJA Obs: 0%
[6]; 88 DAA, 840 g ae/ha
  Visual Weed Control CENJA Obs: 0%
[6]; 117 DAA, 840 g ae/ha
  Visual Weed Control CENJA Obs: 0%
[7]; 840 g ae/ha
  Visual Weed Control LEPVI Obs: 74%
[8]; 840 g ae/ha
  Visual Weed Control SOOS Obs: 15%
[9]; 840 g ae/ha
  Visual Weed Control MEUIN Obs: 20%
[10]; 840 g ae/ha
  Visual Weed Control ANTCO Obs: 30%
[11]; 88 DAA, 840 g ae/ha
  Visual Weed Control ASTPI Obs: 10%
[11]; 117 DAA, 840 g ae/ha
  Visual Weed Control ASTPI Obs: 5%

## COc1c(Cl)ccc(-c2nc(C(=O)OCc3ccccc3)c(Cl)c(N)c2F)c1F [Florpyrauxifen Benzyl, florpyrauxifen benzyl]
[2]; 30 DAA, 12.5 g ae/ha
  Visual Weed Control CASOB Obs: 10%
[2]; 30 DAA, 19 g ae/ha
  Visual Weed Control CASOB Obs: 10%
[2]; 45 DAA, 12.5 g ae/ha
  Visual Weed Control CASOB Obs: 10%
[2]; 45 DAA, 19 g ae/ha
  Visual Weed Control CASOB Obs: 10%
[3]; 10 DAA, 9.44 g ae/ha
  Visual Weed Control RANAC Obs: 0%
[3]; 40 DAA, 9.44 g ae/ha
  Visual Weed Control RANAC Obs: 0%
[4]; 41 DAA, 12.5 g ae/ha
  Visual Weed Control IVAAN Obs: 38%
[4]; 41 DAA, 19 g ae/ha
  Visual Weed Control IVAAN Obs: 50%
[4]; 56 DAA, 12.5 g ae/ha
  Visual Weed Control IVAAN Obs: 42%
[4]; 75 DAA, 9.5 g ae/ha
  Visual Weed Control IVAAN Obs: 25%
[4]; 75 DAA, 12.5 g ae/ha
  Visual Weed Control IVAAN Obs: 48%
[4]; 83 DAA, 9.5 g ae/ha
  Visual Weed Control IVAAN Obs: 30%
[4]; 83 DAA, 12.5 g ae/ha
  Visual Weed Control IVAAN Obs: 48%
[5]; 30 DAA, 9.5 g ae/ha
  Visual Weed Control HENAM Obs: 60%
[5]; 30 DAA, 12.5 g ae/ha
  Visual Weed Control HENAM Obs: 60%
[5]; 80 DAA, 12.5 g ae/ha
  Visual Weed Control HENAM Obs: 40%
[6]; 67 DAA, 19 g ae/ha
  Visual Weed Control CENJA Obs: 62%
[6]; 88 DAA, 19 g ae/ha
  Visual Weed Control CENJA Obs: 62%
[6]; 117 DAA, 9.5 g ae/ha
  Visual Weed Control CENJA Obs: 21%
[6]; 117 DAA, 19 g ae/ha
  Visual Weed Control CENJA Obs: 31%
[7]; 9.5 g ae/ha
  Visual Weed Control LEPVI Obs: 62%
[7]; 12.5 g ae/ha
  Visual Weed Control LEPVI Obs: 70%
[7]; 19 g ae/ha
  Visual Weed Control LEPVI Obs: 65%
[8]; 9.5 g ae/ha
  Visual Weed Control SOOS Obs: 75%
[9]; 19 g ae/ha
  Visual Weed Control MEUIN Obs: 10%
[10]; 12.5 g ae/ha
  Visual Weed Control ANTCO Obs: 10%
[11]; 88 DAA, 9.5 g ae/ha
  Visual Weed Control ASTPI Obs: 75%
[11]; 117 DAA, 9.5 g ae/ha
  Visual Weed Control ASTPI Obs: 20%
